# Reference: patent US20020159994A1, “Biotin derivatives” (priority 2000, published 2002)
# Target: T1, Mitra Avidin-Agarose (Gallus gallus, UniProt P02701)
# T1 construct: Mitra (Mitra Medical Technology AB)
# Test: Adsorption of biotin-trimer to avidin-agarose column (conditioning, ELISA of recirculated fluid)
# Format: binding
# Parameters: biotin-trimer bound if one biotin-trimer is bound per available binding site: unit not given here
# Method: Two mL of Mitra Avidin-Agarose was packed into a column housing and was washed with >10 mL of PBS at a flow rate of 1 mL/min (1.6 cm/min). Five mL of a 1 mg/mL solution of biotin-trimer in PBS was recirculated through the avidin-column at 1 mL/min for 20 minutes. At end of the recirculation, a sample (0.5 mL) was drawn from the recirculated solution and analysed by an ELISA technique developed by Mitra Medical Technology AB. The biotin-avidin-agarose-column was washed with phosphate buffer at 1 mL/min for 20 minutes. By determining the concentration of biotin-trimer in the recirculated fluid, the amount of adsorbed biotin-trimer was estimated to about 1.9 mg i.e. […] of gel at the end of recirculation.
# Biotin-trimer was adsorbed to 2 mL of Mitra Avidin-Agarose. […] If one biotin-trimer is bound per available binding site this would correspond to […] biotin-trimer/mL. As about 0.95 mg biotin-trimer was bound per mL avidin-agarose it can be assumed that the adsorbent was saturated with biotin-trimer.
# T1 sequence (P02701 25-152): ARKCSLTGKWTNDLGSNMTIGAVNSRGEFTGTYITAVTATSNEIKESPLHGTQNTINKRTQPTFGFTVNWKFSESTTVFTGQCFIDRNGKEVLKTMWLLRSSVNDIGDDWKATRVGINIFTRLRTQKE
compound,measurement,setting,value
O=C(CCCCC1OCC2NC(=O)NC21)NCCOCCOCCNC(=O)c1cc(C(=O)NCCOCCOCCNC(=O)CCCCC2OCC3NC(=O)NC32)cc(C(=O)NCCOCCOCCNC(=O)CCCCC2OCC3NC(=O)NC32)c1 (stereo not shown) [biotin-trimer],biotin-trimer bound per mL avidin-agarose,2 mL Mitra Avidin-Agarose,about 0.95 mg per mL avidin-agarose
same,amount of adsorbed biotin-trimer at end of recirculation,"2 mL Mitra Avidin-Agarose, 5 mL of 1 mg/mL biotin-trimer in PBS recirculated at 1 mL/min for 20 minutes",about 1.9 mg
same,amount of adsorbed biotin-trimer per mL of gel,"2 mL Mitra Avidin-Agarose, end of 20 min recirculation",~0.95 mg/mL
same,biotin-trimer bound if one biotin-trimer is bound per available binding site,"theoretical, from static biotin binding capacity",514
